According to patent EP0597303A2, “Cephalosporin derivatives” (priority 1992, dated 1994):
Counter-ions that a name gives are not always drawn. Like-named read-outs stand apart in the source and are kept apart here.

Assays:
[1] = system: Prot. mirabilis 503-1136; assay: MIC, Agar (Mueller Hinton) Dilution Method; format: cell-based; settings: Proteus mirabilis, 5031136
Method in brief: (§1)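 An agar-based dilution method with Mueller Hinton medium gives in vitro MIC values (micrograms/ml) for several bacterial species of both Gram types.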

[2] = system: Str. pneumoniae 6302; assay: MIC, Agar (Mueller Hinton) Dilution Method; format: cell-based; settings: Streptococcus pneumoniae, Gram Positive and Others
Method in brief: as §1

[3] = Prot. mirabilis 503-1136, Gram Negative, read-out: MIC

O=C(Cc1cccs1)N[C@@H]1C(=O)N2C(C(=O)O)=C(COC(=O)N3CCN(c4c(F)cc5c(=O)c(C(=O)O)cn(C6CC6)c5c4F)CC3)CS[C@H]12 [Formula Ia, [6R,7R]-3-[[[[4-(3-Carboxy-1-cyclopropyl-6,8-difluoro-1,4-dihydro-4-oxo-7-quinolinyl)-1-piperazinyl]carbonyl]-oxy]-methyl]-8-oxo-7-[(2-thienylacetyl)amino]-5-thia-1-azabicyclo-[4.2.0]oct-2-ene-2-carboxylic acid]
MIC [1, 3]: 0.5 µg/mL

N#CCC(=O)N[C@@H]1C(=O)N2C(C(=O)O)=C(COC(=O)NC3CCN(c4c(F)cc5c(=O)c(C(=O)O)cn(C6CC6)c5c4F)C3)CS[C@H]12 (stereo partly drawn) [Formula Ib, [6R,7R]-3-[[[[[1-(3-Carboxy-1-cyclopropyl-6,8-difluoro-1,4-dihydro-4-oxo-7-quinolinyl-3-[R,S]-pyrrolidinyl]-amino]carbonyl]oxy]methyl]-7-[(cyanoacetyl)amino]-8-oxo-5-thia-1-azabicyclo[4.2.0]oct-2-ene-2-carboxyiic acid monosodium salt]
MIC [1, 3]: 0.25 µg/mL

N#CCC(=O)N[C@@H]1C(=O)N2C(C(=O)O)=C(COC(=O)N[C@H]3CCN(c4c(F)cc5c(=O)c(C(=O)O)cn(C6CC6)c5c4F)C3)CS[C@H]12 [Formula Iba, [6R-[3(S^*), 6 alpha, 7 beta]]-3-[[[[[1-(3-Carboxy-1-cyclopropyl-6,8-difluoro-1,4-dihydro-4-oxo-7-quinolinyl-3-pyrrolidinyl]-amino]carbonyl]oxy]methyl]-7-[(cyanoacetyl)amino]-8-oxo-5-thia 1-azabicyclo[4.2.0]oct-2-ene-2-carboxylic acid monosodium salt]
MIC [2]: 0.0625 µg/mL | MIC [1, 3]: 0.0625 µg/mL

N#CCC(=O)N[C@@H]1C(=O)N2C(C(=O)O)=C(COC(=O)N[C@@H]3CCN(c4c(F)cc5c(=O)c(C(=O)O)cn(C6CC6)c5c4F)C3)CS[C@H]12 [Formula Ibb, [6R-[3(R^*), 6 alpha, 7 beta]]-3-[[[[[1-(3-Carboxy-1-cyclopropyl-6,8-difluoro-1,4-dihydro-4-oxo-7-quinolinyl-3-pyrrolidinyi]amino]carbonyl]oxy]methyL]-7-[(cyanoacetyl)amino]-8-oxo-5-thia-1-azabicyclo[4.2.0]oct-2-ene-2-carboxylic acid monosodium salt]
MIC [2]: 0.0625 µg/mL | MIC [1]: 0.125 µg/mL
